Data as given in patent US20260285897A1, “Neurosteroids and Prodrugs Thereof” (Emory University, priority 2023, published 2026).

Legend:
[1] = Microsomal stability assay; type: in vitro ADME; settings: Human Liver Microsomes, 37° C., unit in cell hr (head: min), read-out: HLM t1/2
Procedure: 3 μM test compound was incubated in Human Liver Microsomes (Xenotech) at 37° C. with aliquots ([…]) removed at 0, 5, 10, 15, and 30 minutes. Enzymatic activity was quenched at each time point with the addition of 200 μL of acetonitrile containing 2 μM internal standard (d5-7-ethoxy coumarin), immediately vortexed and centrifuged at 15,000 rpm for 25 min at 4° C. Supernatants were transferred to autosampler vials for LC-MS/MS analysis. LC-MS/MS analysis was performed using Agilent Infinity II 1260 HPLC coupled to a G6460C QQQ MS. Half-lives were determined by plotting ln of % test compound remaining versus time and performing linear regression to determine the slope. Slope=−k and t½=0.693/k for first order kinetics.

[2] = Plasma stability assay; type: in vitro ADME; settings: human plasma, 37° C., read-out: Human plasma t1/2
Procedure: 3 μM test compound was incubated in Human or Mouse plasma (BioIVT) at 37° C. with aliquots (100 μL) removed at 0, 15, 30, 60, 120, and 240 minutes. Enzymatic activity was quenched at each time point with the addition of 200 μL of acetonitrile containing 2 μM internal standard (d5-7-ethoxy coumarin), immediately vortexed and centrifuged at 15,000 rpm for 25 min at 4° C. Supernatants were transferred to autosampler vials for LC-MS/MS analysis. LC-MS/MS analysis was performed using Agilent Infinity II 1260 HPLC coupled to a G6460C QQQ MS. Half-lives were determined by plotting ln of % test compound remaining versus time and performing linear regression to determine the slope. Slope=−k and t½=0.693/k for first order kinetics.

[3] = target: GABAA α1β2γ2 (Homo sapiens, UniProt P14867+P47870); assay: GABAA electrophysiology, PAM mode, SyncroPatch automated patch clamp; type: cell-based; settings: for Emax: read-out: GABAA α1β2γ2 Maximum Potentiation
Chain of GABAA α1β2γ2 (P14867 28-456): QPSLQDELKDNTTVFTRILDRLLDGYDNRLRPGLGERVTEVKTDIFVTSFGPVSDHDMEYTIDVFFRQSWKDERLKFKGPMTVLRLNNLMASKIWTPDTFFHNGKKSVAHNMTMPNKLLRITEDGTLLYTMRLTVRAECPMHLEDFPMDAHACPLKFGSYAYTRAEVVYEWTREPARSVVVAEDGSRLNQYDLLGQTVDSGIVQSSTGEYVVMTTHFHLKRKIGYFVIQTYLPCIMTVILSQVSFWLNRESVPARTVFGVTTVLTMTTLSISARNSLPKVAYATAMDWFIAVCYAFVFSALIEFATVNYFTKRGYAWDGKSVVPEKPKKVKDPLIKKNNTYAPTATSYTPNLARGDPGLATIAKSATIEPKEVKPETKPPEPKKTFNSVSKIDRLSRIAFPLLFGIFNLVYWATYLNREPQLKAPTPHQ
Chain of GABAA α1β2γ2 (P47870 25-512 limits assumed): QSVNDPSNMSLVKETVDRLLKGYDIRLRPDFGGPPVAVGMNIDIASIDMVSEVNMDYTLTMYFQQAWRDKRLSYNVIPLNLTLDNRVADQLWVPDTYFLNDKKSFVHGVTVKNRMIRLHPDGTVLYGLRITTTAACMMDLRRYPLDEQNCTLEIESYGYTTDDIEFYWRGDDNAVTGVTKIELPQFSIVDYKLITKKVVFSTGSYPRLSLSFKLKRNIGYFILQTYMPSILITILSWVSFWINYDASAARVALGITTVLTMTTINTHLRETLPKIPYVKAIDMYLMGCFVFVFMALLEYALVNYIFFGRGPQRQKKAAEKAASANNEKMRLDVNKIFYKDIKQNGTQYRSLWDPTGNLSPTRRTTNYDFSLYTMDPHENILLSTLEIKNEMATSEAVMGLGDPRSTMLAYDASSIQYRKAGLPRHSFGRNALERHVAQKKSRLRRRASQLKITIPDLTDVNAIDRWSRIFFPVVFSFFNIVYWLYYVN
Chain of GABAA α1β2γ2 (P18507 40-475 partner): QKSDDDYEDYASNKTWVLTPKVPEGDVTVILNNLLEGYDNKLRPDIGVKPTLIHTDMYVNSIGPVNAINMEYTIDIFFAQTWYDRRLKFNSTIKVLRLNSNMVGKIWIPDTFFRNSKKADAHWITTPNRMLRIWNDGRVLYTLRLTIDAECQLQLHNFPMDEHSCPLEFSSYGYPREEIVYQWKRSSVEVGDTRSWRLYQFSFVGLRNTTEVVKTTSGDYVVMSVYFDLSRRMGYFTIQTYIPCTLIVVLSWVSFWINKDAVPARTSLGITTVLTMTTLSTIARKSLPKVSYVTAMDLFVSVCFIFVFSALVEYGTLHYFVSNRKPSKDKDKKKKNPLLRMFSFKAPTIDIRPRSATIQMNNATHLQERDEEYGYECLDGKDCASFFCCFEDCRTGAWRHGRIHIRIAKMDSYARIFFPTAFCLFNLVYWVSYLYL
Procedure: (§1) The SyncroPatch assay is performed at room temperature. A fast application protocol is used, in which the ligand is rapidly applied and then removed from the cell. To test for PAM mode, the agonist (GABA EC20) is applied three times as a control and to show reproducibility, followed by a minimum 2-minute pre-incubation of client compound and then re-application of agonist (GABA EC20) in the presence of client compound. Finally, a saturating concentration of agonist is applied. A steady-state voltage pulse at −80 mV is applied throughout the assay. Compounds are prepared as 10 mM DMSO stocks.
(§2) Automated patch clamp-recordings are performed using the SyncroPatch 384i. The voltage protocol generation and data collection are performed with Patch Controller 384 V2.2.1 and Data Controller V2.3.0. The PAM activity is calculated using the following equation, [(Icomp/Ireference)−1], where Icomp is the current amplitude in the presence of the compound and Ireference is the current amplitude in the presence of GABA alone. This builds an activation concentration-response curve (CRC), where <0.2 represents no PAM activity and >0.2 represents PAM activity. If a “bell-shape curve” is observed at the higher concentrations, showing a reduction in activity in comparison to previous concentrations, then to allow for a more accurate curve fit, these concentrations are removed from the graphs where necessary and noted in the results table.

[4] = target: GABAA α4β3δ (Homo sapiens, UniProt P28472+P48169); assay: as above; type: cell-based; settings: for Emax: read-out: GABAA α4β3δ Maximum Potentiation; for selectivity for GABAA receptor containing the delta (δ) subunit compared to a GABAA receptor without it: α4β3δ vs α1β2γ2, in words
Chain of GABAA α4β3δ (P48169 36-554): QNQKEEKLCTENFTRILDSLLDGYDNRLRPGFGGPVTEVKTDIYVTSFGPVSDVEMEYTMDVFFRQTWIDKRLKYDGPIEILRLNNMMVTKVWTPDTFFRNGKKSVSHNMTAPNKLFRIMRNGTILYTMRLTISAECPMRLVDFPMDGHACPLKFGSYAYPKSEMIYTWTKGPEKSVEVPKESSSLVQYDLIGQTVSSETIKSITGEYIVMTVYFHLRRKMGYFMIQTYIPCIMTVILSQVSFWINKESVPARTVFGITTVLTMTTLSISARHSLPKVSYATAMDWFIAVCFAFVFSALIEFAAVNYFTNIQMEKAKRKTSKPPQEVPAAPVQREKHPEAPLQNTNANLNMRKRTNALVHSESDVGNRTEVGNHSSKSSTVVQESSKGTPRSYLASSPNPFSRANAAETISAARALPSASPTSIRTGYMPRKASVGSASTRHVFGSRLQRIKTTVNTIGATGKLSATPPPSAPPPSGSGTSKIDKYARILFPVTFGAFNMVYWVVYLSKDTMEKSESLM
Chain of GABAA α4β3δ (P28472 26-473): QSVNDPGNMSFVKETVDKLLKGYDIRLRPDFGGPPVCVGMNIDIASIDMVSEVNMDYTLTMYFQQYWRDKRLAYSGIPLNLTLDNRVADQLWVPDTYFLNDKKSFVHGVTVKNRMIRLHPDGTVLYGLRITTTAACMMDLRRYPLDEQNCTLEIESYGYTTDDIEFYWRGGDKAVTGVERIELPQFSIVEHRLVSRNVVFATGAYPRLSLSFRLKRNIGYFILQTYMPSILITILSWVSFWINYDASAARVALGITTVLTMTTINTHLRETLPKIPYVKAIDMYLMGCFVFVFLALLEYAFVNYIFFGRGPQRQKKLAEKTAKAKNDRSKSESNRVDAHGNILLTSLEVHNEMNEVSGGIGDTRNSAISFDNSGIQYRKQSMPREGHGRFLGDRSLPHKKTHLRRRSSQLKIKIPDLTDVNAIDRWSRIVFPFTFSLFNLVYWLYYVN
Chain of GABAA α4β3δ (O14764 17-452 partner limits assumed): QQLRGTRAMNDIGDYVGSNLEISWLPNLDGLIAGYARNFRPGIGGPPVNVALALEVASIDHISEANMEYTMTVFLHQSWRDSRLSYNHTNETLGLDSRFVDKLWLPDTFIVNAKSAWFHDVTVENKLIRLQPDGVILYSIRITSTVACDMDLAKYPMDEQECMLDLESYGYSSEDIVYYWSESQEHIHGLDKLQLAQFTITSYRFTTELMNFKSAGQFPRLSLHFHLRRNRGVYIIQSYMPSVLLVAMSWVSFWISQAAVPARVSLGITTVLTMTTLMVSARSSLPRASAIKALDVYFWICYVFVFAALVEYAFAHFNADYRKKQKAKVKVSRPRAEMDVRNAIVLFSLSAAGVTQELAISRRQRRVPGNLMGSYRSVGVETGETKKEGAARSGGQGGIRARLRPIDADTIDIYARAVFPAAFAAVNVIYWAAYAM
Procedure: as §1, §2

[5] = Aqueous stability assay in PBS (DPBS), HPLC; type: physicochemical; settings: 1 mg/mL, room temperature, parent remaining at 2 hr, read-out: PBS (% REM at 2 hr)
Procedure: Aqueous stability experiments were performed on an Agilent 1100 HPLC equipped with an Agilent 1200 autosampler. HPLC grade solvents were exclusively used during analysis, with acetonitrile being purchased from Sigma Aldrich, and water and formic acid provided by Fisher Scientific. Sample solutions were prepared in 2.0 mL large opening RAM™ vials from Chemglass using DPBS as the aqueous medium.
Tested compounds were dissolved in DPBS at a standard concentration of 1 mg/mL. All mixtures were then sonicated for 5 min or stirred until complete dissolution was achieved. Any precipitate observed in sample solutions was filtered with a PTFE syringe filter prior to analysis. Immediately after sample preparation, injection by the HPLC autosampler was performed, which was recorded as the initial time point (t=0 min). Samples were then kept in the autosampler at room temperature and injected at designated intervals without additional filtration or sample modification. Next, the area of the parent peak in each chromatogram was determined by automated integration in the Agilent ChemStation software. Pseudo first-order half-lives were then ascertained by calculating the percent of the parent compound remaining after each time point, Plots of time (x-axis) vs. the natural logarithm of percent parent remaining (y-axis) were subsequently constructed to determine the slope. Finally, the aqueous stability was evaluated using the following equation: […]
The HPLC conditions were as follows: injection volume, 1 μL; column temperature: 40° C.; detector: 254 nm; stationary phase: Zorbax Eclipse XDB-C18 (4.6×150 mm, 5 μm); flow rate: 1 mL/min; mobile phase: 80-95% acetonitrile in H2O (0.1% formic acid).

[6] = Aqueous solubility; settings: water

| SMILES | EC50 [3] | EC50 [4] | remaining at 2 h [5] | half-life at 3 µM [2] | solubility [6] | further results |
| --- | --- | --- | --- | --- | --- | --- |
| C/C(=N\O)[C@H]1CC[C@H]2[C@@H]3CC[C@H]4C[C@](C)(O)CC[C@]4(C)[C@H]3CC[C@]12C [GP-GAN- 001 (10), (E)-1-((3R,8R,9S,10S,13S,14S,17S)-3-hydroxy-3,10,13-trimethylhexadecahydro-1H-cyclopenta[a]phenanthren-17-yl)ethan-1-one oxime] | 1620 nM | 1000 nM |  |  |  | half-life at 3 µM [1]: > 120 min; half-life at 3 µM ([2]; unit in cell hr (head: min)): > 240 min; Emax [3]: 133%; Emax [4]: 533% |
| CNCCN(C)C(=O)O/N=C(\C)[C@H]1CC[C@H]2[C@@H]3CCC4C[C@](C)(O)CC[C@]4(C)[C@H]3CC[C@]12C.Cl (stereo partly drawn) [GP-GAN- 002 (20a), (E)-1-((3R,8R,9S,10S,13S,14S,17S)-3-hydroxy-3,10,13-trimethylhexadecahydro-1H-cyclopenta[a]phenanthren-17-yl)ethan-1-one O-(methyl(2-(methylamino)ethyl)carbamoyl) oxime hydrochloride] |  |  | 66% | 55 min | > 750 µM |  |
| C/C(=N\OC(=O)N(C)C[C@@H]1CCCN1)[C@H]1CC[C@H]2[C@@H]3CCC4C[C@](C)(O)CC[C@]4(C)[C@H]3CC[C@]12C.Cl (stereo partly drawn) [GP-GAN- 003 (20b), (E)-1-((3R,8R,9S,10S,13S,14S,17S)-3-hydroxy-3,10,13-trimethylhexadecahydro-1H-cyclopenta[a]phenanthren-17-yl)ethan-1-one O-(methyl(((S)-pyrrolidin-2-yl)methyl)carbamoyl) oxime hydrochloride] |  |  | 10% | 6 min | > 750 µM |  |
| CNCCN(C(=O)O/N=C(\C)[C@H]1CC[C@H]2[C@@H]3CCC4C[C@](C)(O)CC[C@]4(C)[C@H]3CC[C@]12C)C(C)C.Cl (stereo partly drawn) [GP-GAN- 004 (20d), (E)-1-((3R,8R,9S,10S,13S,14S,17S)-3-hydroxy-3,10,13-trimethylhexadecahydro-1H-cyclopenta[a]phenanthren-17-yl)ethan-1-one O-(isopropyl(2-(methylamino)ethyl)carbamoyl) oxime hydrochloride] |  |  | 52% | 28 min | > 750 µM |  |
| CNCCN(C(=O)O/N=C(\C)[C@H]1CC[C@H]2[C@@H]3CCC4C[C@](C)(O)CC[C@]4(C)[C@H]3CC[C@]12C)C1CCC1.Cl (stereo partly drawn) [GP-GAN- 005 (20c), (E)-1-((3R,8R,9S,10S,13S,14S,17S)-3-hydroxy-3,10,13-trimethylhexadecahydro-1H-cyclopenta[a]phenanthren-17-yl)ethan-1-one O-(cyclobutyl(2-(methylamino)ethyl)carbamoyl) oxime hydrochloride] |  |  | 43% | 39 min | > 750 µM |  |
| C/C(=N\O)[C@@]1(F)CC[C@H]2[C@@H]3CC[C@H]4C[C@](C)(O)CC[C@]4(C)[C@H]3CC[C@@]21C [GP-GAN- 006 (15), (E)-1-((3R,8R,9S,10S,13S,14S,17R)-17-fluoro-3-hydroxy-3,10,13-trimethylhexadecahydro-1H-cyclopenta[a]phenanthren-17-yl)ethan-1-one oxime] |  |  | 61% | 3 min |  |  |
| C/C(=N\OCOP(=O)(O)O)[C@H]1CC[C@H]2[C@@H]3CCC4C[C@](C)(O)CC[C@]4(C)[C@H]3CC[C@]12C (stereo partly drawn) [GP-GAN- 007 (22), 1,3-Dihydroxy-2-(hydroxymethyl)propan-2-aminium ((((E)-1-((3R,8R,9S,10S,13S,14S,17S)-3-hydroxy-3,10,13-trimethylhexadecahydro-1H-cyclopenta[a]phenanthren-17-yl)ethylidene)amino)oxy)methyl hydrogen phosphate] |  |  |  |  | > 1000 µM |  |
| CC(=O)[C@H]1CC[C@H]2[C@@H]3CC[C@H]4C[C@](C)(O)CC[C@]4(C)[C@H]3CC[C@]12C [Ganaxalone, Ganaxolone, reference compound] | 540 nM | 879 nM |  |  |  |  |
| C/C(=N\O)[C@H]1CC[C@H]2[C@@H]3CC[C@@H]4C[C@](C)(O)CC[C@@H]4[C@H]3CC[C@]12C [LEH- NEURO- 007 (30), (E)-1-((3R,5R,8R,9R,10S,13S,14S,17S)-3-hydroxy-3,13-dimethylhexadecahydro-1H-cyclopenta[a]phenanthren-17-yl)ethan-1-one oxime] | 692 nM | 383 nM |  |  |  | half-life at 3 µM ([2]; unit in cell hr (head: min)): > 240 min; Emax [3]: 121%; Emax [4]: 510%; selectivity for GABAA receptor containing the delta (δ) subunit compared to a GABAA receptor without it [4]: selectively potentiate |
| C/C(=N\O)[C@H]1CC[C@H]2[C@@H]3CCC4C[C@](C)(O)CC[C@]4(C)[C@H]3CC[C@]12C (stereo partly drawn) [compound 10] |  |  |  |  |  | selectivity for GABAA receptor containing the delta (δ) subunit compared to a GABAA receptor without it [4]: selectively potentiate |
